Data taken from US20250353891A1 (MEDIMMUNE LIMITED, priority 2022, published 2025).
Like-named read-outs stand apart in the source and are kept apart here. Starred links: 1 amine or outer side, 2 acyl side, 3 side chain; linkers in the order of their positions; H or OH if unused. Non-standard residues stand in square brackets, D forms with d. Residues, ends and D or L forms follow the SMILES beside them. Groups on a side chain read outwards from the residue. *: point of attachment. C18 diacid = O=C(O)CCCCCCCCCCCCCCCCC(=O)*; γGlu = O=C(O)[C@H](CCC(=O)[*:2])N[*:1]; αMeF = C[C@](N)(Cc1ccccc1)C(=O)O; AEEA = NCCOCCOCC(=O)O; Aib = CC(C)(N)C(=O)O

How the values were obtained:
[1] = molecular target: human glucagon receptor (hGCGR) (Homo sapiens, UniProt P47871); experiment: cAMP production (HTRF) in CHO cells expressing hGCGR; format: cell-based; set-up: expressed in transfected cells; details: cAMP in CHO hGCGR cells, geometric mean, read-out: hGluc-R EC50
human glucagon receptor (hGCGR), sequence (P47871 26-477): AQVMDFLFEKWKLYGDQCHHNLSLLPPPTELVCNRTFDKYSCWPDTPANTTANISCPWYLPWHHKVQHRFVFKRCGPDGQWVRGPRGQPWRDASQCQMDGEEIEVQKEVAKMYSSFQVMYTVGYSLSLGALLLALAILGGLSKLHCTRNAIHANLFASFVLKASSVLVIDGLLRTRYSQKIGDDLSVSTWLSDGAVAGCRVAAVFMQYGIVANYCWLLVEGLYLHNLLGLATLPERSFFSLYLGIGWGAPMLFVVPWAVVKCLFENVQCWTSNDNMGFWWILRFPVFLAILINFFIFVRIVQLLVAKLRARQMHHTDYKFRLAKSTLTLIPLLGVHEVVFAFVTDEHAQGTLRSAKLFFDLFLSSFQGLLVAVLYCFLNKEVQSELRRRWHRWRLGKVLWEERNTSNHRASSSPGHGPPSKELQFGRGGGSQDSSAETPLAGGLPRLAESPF
Procedure, shortened: (§1)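 Cells were resuspended in assay buffer at batch-optimized density, typically 1×10^5 cells/mL for hGLP-1R and 2×10^5 cells/mL for hGCGR. After 30 min incubation at room temperature with compound, cAMP was measured by two-step HTRF. EC50 values came from 4-parameter logistic fits of % Delta F.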

[2] = molecular target: human GLP-1 receptor (hGLP-1R) (Homo sapiens, UniProt P43220); experiment: cAMP production (HTRF) in CHO cells expressing hGLP-1R; format: cell-based; set-up: expressed in transfected cells; details: for EC50: cAMP in CHO hGLP-1R cells, geometric mean, read-out: hGLP-1R EC50; for % Relative Potency Ratio: % GLP-1R activity relative to GLP-1 / % GlucR activity relative to glucagon
human GLP-1 receptor (hGLP-1R), sequence (P43220 24-463): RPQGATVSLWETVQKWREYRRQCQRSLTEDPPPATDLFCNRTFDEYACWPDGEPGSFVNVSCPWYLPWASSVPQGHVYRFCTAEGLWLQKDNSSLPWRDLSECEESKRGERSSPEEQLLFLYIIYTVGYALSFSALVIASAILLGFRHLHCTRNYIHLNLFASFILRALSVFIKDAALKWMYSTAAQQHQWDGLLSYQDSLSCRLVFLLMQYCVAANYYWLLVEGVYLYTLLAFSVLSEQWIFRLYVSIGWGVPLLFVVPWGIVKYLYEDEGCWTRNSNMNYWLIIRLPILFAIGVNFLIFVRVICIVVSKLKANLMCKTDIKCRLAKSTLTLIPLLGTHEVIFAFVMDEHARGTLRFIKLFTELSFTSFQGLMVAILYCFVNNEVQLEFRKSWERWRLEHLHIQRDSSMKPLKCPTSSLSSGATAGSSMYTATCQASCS
Procedure, shortened: as §1

[3] = Table 6, peptides modified at position 17
[4] = Table 7, peptides modified at position 20

Structure (SMILES): CC(C)C[C@H](NC(=O)[C@H](Cc1c[nH]c2ccccc12)NC(=O)[C@H](CCC(N)=O)NC(=O)[C@@H](NC(=O)[C@H](Cc1ccccc1)NC(=O)[C@H](CC(=O)O)NC(=O)[C@H](CCCNC(=N)N)NC(=O)[C@H](C)NC(=O)[C@H](CCCNC(=N)N)NC(=O)[C@H](CCCCNC(=O)COCCOCCNC(=O)COCCOCCNC(=O)CC[C@H](NC(=O)CCCCCCCCCCCCCCCCC(=O)O)C(=O)O)NC(=O)[C@@H](NC(=O)[C@H](CC(=O)O)NC(=O)[C@H](CC(C)C)NC(=O)[C@](C)(Cc1ccccc1)NC(=O)[C@H](CCCCN)NC(=O)[C@H](CO)NC(=O)[C@@H](NC(=O)[C@H](CC(=O)O)NC(=O)[C@H](CO)NC(=O)[C@@H](NC(=O)[C@H](Cc1ccccc1)NC(=O)[C@@H](NC(=O)CNC(=O)[C@H](CCC(N)=O)NC(=O)C(C)(C)NC(=O)[C@@H](N)Cc1c[nH]cn1)[C@@H](C)O)[C@@H](C)O)C(C)C)[C@@H](C)O)C(C)C)C(=O)N[C@@H](CCC(=O)O)C(=O)N[C@@H](C)C(=O)NC(C)(C)C(=O)NCC(=O)O [Peptide 202] (H-H[Aib]QGTFTSDVSK[αMeF]LDTK([AEEA-AEEA-γGlu-C18 diacid])RARDFVQWLEA[Aib]G-OH; N-terminus assumed)
- EC50 [1, 3]: 0.242 nM
- EC50 [2, 3]: 0.0178 nM
- % Relative Potency Ratio ([2]; Table 6): 26.9

Structure (SMILES): CC[C@H](C)[C@H](NC(=O)[C@H](Cc1c[nH]c2ccccc12)NC(=O)[C@H](CCC(N)=O)NC(=O)[C@@H](NC(=O)[C@H](Cc1ccccc1)NC(=O)[C@H](CC(=O)O)NC(=O)[C@H](CCCCNC(=O)COCCOCCNC(=O)COCCOCCNC(=O)CC[C@H](NC(=O)CCCCCCCCCCCCCCCCC(=O)O)C(=O)O)NC(=O)[C@H](C)NC(=O)[C@H](C)NC(=O)[C@H](CCCNC(=N)N)NC(=O)[C@H](CO)NC(=O)[C@H](CC(=O)O)NC(=O)[C@H](CC(C)C)NC(=O)[C@](C)(Cc1ccccc1)NC(=O)[C@H](CCCCN)NC(=O)[C@H](CO)NC(=O)[C@@H](NC(=O)[C@H](CC(=O)O)NC(=O)[C@H](CO)NC(=O)[C@@H](NC(=O)[C@](C)(Cc1ccccc1)NC(=O)[C@H](CO)NC(=O)CNC(=O)[C@H](Cc1c[nH]cn1)NC(=O)C(C)(C)NC(=O)[C@@H](N)Cc1c[nH]cn1)[C@@H](C)O)C(C)C)C(C)C)C(=O)N[C@@H](C)C(=O)N[C@@H](CC(N)=O)C(=O)N[C@H](C(N)=O)[C@@H](C)O [Peptide 205] (H-H[Aib]HGS[αMeF]TSDVSK[αMeF]LDSRAAK([AEEA-AEEA-γGlu-C18 diacid])DFVQWIANT-NH2)
- EC50 [1, 4]: 0.00814 nM
- EC50 [2, 4]: 0.0299 nM
- % Relative Potency Ratio ([2]; Table 7): 0.5

Structure (SMILES): CC[C@H](C)[C@H](NC(=O)[C@H](Cc1c[nH]c2ccccc12)NC(=O)[C@H](CCC(N)=O)NC(=O)[C@@H](NC(=O)[C@H](Cc1ccccc1)NC(=O)[C@H](CC(=O)O)NC(=O)[C@H](CCCCNC(=O)COCCOCCNC(=O)COCCOCCNC(=O)CC[C@H](NC(=O)CCCCCCCCCCCCCCCCC(=O)O)C(=O)O)NC(=O)[C@H](C)NC(=O)C(C)(C)NC(=O)[C@H](CCCNC(=N)N)NC(=O)[C@H](CO)NC(=O)[C@H](CC(=O)O)NC(=O)[C@H](CC(C)C)NC(=O)[C@](C)(Cc1ccccc1)NC(=O)[C@H](CCCCN)NC(=O)[C@H](CO)NC(=O)[C@@H](NC(=O)[C@H](CC(=O)O)NC(=O)[C@H](CO)NC(=O)[C@@H](NC(=O)[C@](C)(Cc1ccccc1)NC(=O)[C@H](CO)NC(=O)CNC(=O)[C@H](Cc1c[nH]cn1)NC(=O)C(C)(C)NC(=O)[C@@H](N)Cc1c[nH]cn1)[C@@H](C)O)C(C)C)C(C)C)C(=O)N[C@@H](C)C(=O)N[C@@H](CC(N)=O)C(=O)N[C@H](C(N)=O)[C@@H](C)O [Peptide 206] (H-H[Aib]HGS[αMeF]TSDVSK[αMeF]LDSR[Aib]AK([AEEA-AEEA-γGlu-C18 diacid])DFVQWIANT-NH2)
- EC50 [1, 4]: 0.0182 nM
- EC50 [2, 4]: 0.0709 nM
- % Relative Potency Ratio ([2]; Table 7): 0.5

Structure (SMILES): CC[C@H](C)[C@H](NC(=O)C(C)(C)NC(=O)[C@H](CCC(N)=O)NC(=O)[C@@H](NC(=O)[C@H](Cc1ccccc1)NC(=O)[C@H](CC(=O)O)NC(=O)[C@H](CCCCNC(=O)COCCOCCNC(=O)COCCOCCNC(=O)CC[C@H](NC(=O)CCCCCCCCCCCCCCCCC(=O)O)C(=O)O)NC(=O)[C@H](C)NC(=O)[C@H](C)NC(=O)[C@H](CCC(N)=O)NC(=O)[C@H](CO)NC(=O)[C@H](CC(=O)O)NC(=O)[C@H](CC(C)C)NC(=O)[C@](C)(Cc1ccccc1)NC(=O)[C@H](CCCCN)NC(=O)[C@H](CO)NC(=O)[C@@H](NC(=O)[C@H](CC(=O)O)NC(=O)[C@H](CO)NC(=O)[C@@H](NC(=O)[C@](C)(Cc1ccccc1)NC(=O)[C@H](CO)NC(=O)CNC(=O)[C@H](Cc1c[nH]cn1)NC(=O)C(C)(C)NC(=O)[C@@H](N)Cc1c[nH]cn1)[C@@H](C)O)C(C)C)C(C)C)C(=O)N[C@@H](C)C(=O)N[C@@H](CC(N)=O)C(=O)N[C@H](C(N)=O)[C@@H](C)O [Peptide 207] (H-H[Aib]HGS[αMeF]TSDVSK[αMeF]LDSQAAK([AEEA-AEEA-γGlu-C18 diacid])DFVQ[Aib]IANT-NH2)
- EC50 [1, 4]: 0.0962 nM
- EC50 [2, 4]: 0.178 nM
- % Relative Potency Ratio ([2]; Table 7): 1.1

Structure (SMILES): CC[C@H](C)[C@H](NC(=O)[C@H](Cc1c[nH]c2ccccc12)NC(=O)[C@H](CCC(N)=O)NC(=O)[C@@H](NC(=O)[C@H](Cc1ccccc1)NC(=O)[C@H](CC(=O)O)NC(=O)[C@H](CCCCNC(=O)CC[C@H](NC(=O)CCCCCCCCCCCCCCCCC(=O)O)C(=O)O)NC(=O)[C@H](C)NC(=O)[C@H](C)NC(=O)[C@H](CCCNC(=N)N)NC(=O)[C@H](CO)NC(=O)[C@H](CC(=O)O)NC(=O)[C@H](CC(C)C)NC(=O)[C@](C)(Cc1ccccc1)NC(=O)[C@H](CCCCN)NC(=O)[C@H](CO)NC(=O)[C@@H](NC(=O)[C@H](CC(=O)O)NC(=O)[C@H](CO)NC(=O)[C@@H](NC(=O)[C@H](Cc1ccccc1)NC(=O)[C@@H](NC(=O)CNC(=O)[C@H](CCC(N)=O)NC(=O)C(C)(C)NC(=O)[C@@H](N)Cc1c[nH]cn1)[C@@H](C)O)[C@@H](C)O)C(C)C)C(C)C)C(=O)N[C@@H](C)C(=O)N[C@@H](CC(N)=O)C(=O)N[C@H](C(N)=O)[C@@H](C)O [Peptide 208]
- EC50 [1, 4]: 0.658 nM
- EC50 [2, 4]: 0.0644 nM
- % Relative Potency Ratio ([2]; Table 7): 20.2

Structure (SMILES): CC[C@H](C)[C@H](NC(=O)[C@H](Cc1c[nH]c2ccccc12)NC(=O)[C@H](CCC(=O)O)NC(=O)[C@@H](NC(=O)[C@H](Cc1ccccc1)NC(=O)[C@H](CC(=O)O)NC(=O)[C@H](CCCCNC(=O)COCCOCCNC(=O)COCCOCCNC(=O)CC[C@H](NC(=O)CCCCCCCCCCCCCCCCC(=O)O)C(=O)O)NC(=O)[C@H](C)NC(=O)[C@H](C)NC(=O)[C@H](CCC(N)=O)NC(=O)[C@H](CO)NC(=O)[C@H](CC(=O)O)NC(=O)[C@H](CC(C)C)NC(=O)[C@](C)(Cc1ccccc1)NC(=O)[C@H](CCCCN)NC(=O)[C@H](CO)NC(=O)[C@@H](NC(=O)[C@H](CC(=O)O)NC(=O)[C@H](CO)NC(=O)[C@@H](NC(=O)[C@](C)(Cc1ccccc1)NC(=O)[C@H](CO)NC(=O)CNC(=O)[C@H](Cc1c[nH]cn1)NC(=O)C(C)(C)NC(=O)[C@@H](N)Cc1c[nH]cn1)[C@@H](C)O)C(C)C)C(C)C)C(=O)N[C@@H](C)C(=O)N[C@@H](CC(N)=O)C(=O)N[C@H](C(N)=O)[C@@H](C)O [Peptide 209] (H-H[Aib]HGS[αMeF]TSDVSK[αMeF]LDSQAAK([AEEA-AEEA-γGlu-C18 diacid])DFVEWIANT-NH2)
- EC50 [1, 4]: 0.0426 nM
- EC50 [2, 4]: 0.127 nM
- % Relative Potency Ratio ([2]; Table 7): 0.7
